Assay results: paper PMC6751662, “Pharmacological and functional similarities of the human neuropeptide Y system in C. elegans challenges phylogenetic views on the FLP/NPR system” (Cell Communication and Signaling : CCS, 2019)

How the values were obtained:
Format in all cases: cell-based, C. elegans
NPR-11 [1] = target: T1, NPR-11 (Caenorhabditis elegans, UniProt Q18179); test: cAMP reporter gene assay, Gs (no forskolin), NPR-11; settings: no forskolin, 4 h, transiently transfected HEK293, CRE-luciferase reporter, mean of >=3 independent experiments
T1 construct: expressed in transfected cells; host or cells: HEK293, transient
T1 sequence (Q18179 1-402): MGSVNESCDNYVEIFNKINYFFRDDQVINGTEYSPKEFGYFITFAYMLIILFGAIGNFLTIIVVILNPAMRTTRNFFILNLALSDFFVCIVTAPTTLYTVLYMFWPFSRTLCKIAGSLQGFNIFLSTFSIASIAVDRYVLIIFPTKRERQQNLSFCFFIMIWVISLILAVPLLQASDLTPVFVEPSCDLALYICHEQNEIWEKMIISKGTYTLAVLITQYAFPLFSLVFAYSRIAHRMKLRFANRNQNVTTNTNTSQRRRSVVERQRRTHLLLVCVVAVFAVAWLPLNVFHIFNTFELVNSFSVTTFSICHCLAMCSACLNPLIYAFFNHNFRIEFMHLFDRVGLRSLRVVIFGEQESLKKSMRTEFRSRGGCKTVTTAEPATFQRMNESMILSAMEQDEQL
Method: (§1) Activation of Gs and Gi/o was assessed with a cAMP reporter gene assay. HEK293 cells grown to 70–80% confluency in 6-well plates were transiently co-transfected with vectors encoding the receptor and the cAMP reporter gene plasmid pGL4.29 [luc2P/CRE/Hygro] (Promega; 4 μg total, 1:1 ratio) using Metafectene Pro (3 μl/μg DNA; Biontex) following the manufacturer’s instructions. 16 h post transfection, the cells were seeded into white 384-well plates at a density of 20,000 cells/well. On the next day, the medium was removed and the cells were stimulated with 20 μl of peptide solution (or forskolin as positive control) in serum-free DMEM for 4 h. For measuring Gi/o activity, the peptide solutions additionally contained 1 μM forskolin to elevate cellular cAMP levels. After incubation, the luciferase substrate OneGlo in lysis buffer (Promega) was added and the luminescence was measured in a microplate reader Tecan Spark (Tecan). Data were analyzed with GraphPad Prism 5.03 and are shown as fold of basal or fold of forskolin in case of Gαi/o activity.
(§2) For in vitro activation, data is presented as mean ± SEM of at least three independent experiments conducted in technical triplicate. […] For the C. elegans NPRs, we considered the strongest response elicited by any of the peptides downstream of a particular receptor as the receptor’s maximal signal. This may or may not be the biological maximum that can be reached by the ‘true’ endogenous agonist. For the human receptors, the response to the established endogenous agonist reflected the maximal signal.

NPR-11 [2] = target: T1, NPR-11; test: IP accumulation assay, co-transfected Gα16, NPR-11; settings: 1 h, HBSS + 20 mM LiCl, HEK293 receptor + Gα16, HTRF IP-One, mean of >=3 independent experiments
Method: (§3) For measuring IP accumulation, HEK293 cells grown to 70–80% confluency in 6-well plates were transiently co-transfected using Metafectene Pro (2.5 μl/μg DNA; Biontex) with plasmids containing receptor and/or mock (empty pcDNA3.1) (for endogenous Gq-coupling) using 4 μg total DNA in a ratio of 3:1 following the manufacturer’s instructions. For testing Gα16- and GαΔ6qi4myr-coupling, plasmids encoding the corresponding Gα protein were co-transfected instead of mock. Gα16 is naturally promiscuous and stimulates the phospholipase C (PLC) pathway leading to IP production, while the exchange of the C-terminal four amino acids of Gαq for the corresponding residues of Gαi1 in the chimeric GαΔ6qi4myr confers the ability to couple to Gi/o protein-preferring receptors but still stimulate PLC, thus specifically redirecting downstream cellular signaling. 16 h post transfection, the cells were seeded into white 384-well plates at a density of 20,000 cells/well. Media was removed 24 h later and the cells were incubated with the indicated concentration of peptides for 1 h in HBSS + 20 mM LiCl. IP accumulation was measured with the HTRF-based IP-One Gq kit (Cisbio) on a microplate reader (Tecan Spark).
(§4) For in vitro activation, data is presented as mean ± SEM of at least three independent experiments conducted in technical triplicate. […]

NPR-4b [3] = target: T2, NPR-4b (Caenorhabditis elegans, UniProt A0A078BTK0); test: cAMP reporter gene assay, Gs (no forskolin), NPR-4b; settings: no forskolin, 4 h, transiently transfected HEK293, CRE-luciferase reporter, mean of >=3 independent experiments
T2 sequence (A0A078BTK0 1-376): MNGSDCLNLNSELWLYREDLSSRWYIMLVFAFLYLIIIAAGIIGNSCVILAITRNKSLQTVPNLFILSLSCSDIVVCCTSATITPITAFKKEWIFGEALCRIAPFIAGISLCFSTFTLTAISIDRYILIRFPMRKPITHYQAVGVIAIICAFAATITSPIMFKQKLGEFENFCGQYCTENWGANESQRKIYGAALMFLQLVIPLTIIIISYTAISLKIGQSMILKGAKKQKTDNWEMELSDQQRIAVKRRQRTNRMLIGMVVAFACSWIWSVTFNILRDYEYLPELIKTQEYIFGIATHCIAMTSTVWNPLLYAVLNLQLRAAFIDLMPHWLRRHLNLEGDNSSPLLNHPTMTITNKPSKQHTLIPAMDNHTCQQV
Method: as §1, §2

NPR-11 [4] = target: T1, NPR-11; test: IP accumulation assay, endogenous Gαq + mock, NPR-11; settings: 1 h, HBSS + 20 mM LiCl, HEK293 receptor + empty vector, HTRF IP-One, mean of >=3 independent experiments
Method: as §3, §4

NPR-4b [5] = target: T2, NPR-4b; test: IP accumulation assay, co-transfected Gα16, NPR-4b; settings: 1 h, HBSS + 20 mM LiCl, HEK293 receptor + Gα16, HTRF IP-One, mean of >=3 independent experiments
Method: as §3, §4

NPR-6 = test: cAMP reporter gene assay, Gs (no forskolin), NPR-6; settings: no forskolin, 4 h, transiently transfected HEK293, CRE-luciferase reporter, mean of >=3 independent experiments
Method: as §1, §2

NPR-5b = target: T3, NPR-5b (Caenorhabditis elegans, UniProt Q6F3C9); test: cAMP reporter gene assay, Gs (no forskolin), NPR-5b; settings: no forskolin, 4 h, transiently transfected HEK293, CRE-luciferase reporter, mean of >=3 independent experiments
T3 sequence (Q6F3C9 1-433): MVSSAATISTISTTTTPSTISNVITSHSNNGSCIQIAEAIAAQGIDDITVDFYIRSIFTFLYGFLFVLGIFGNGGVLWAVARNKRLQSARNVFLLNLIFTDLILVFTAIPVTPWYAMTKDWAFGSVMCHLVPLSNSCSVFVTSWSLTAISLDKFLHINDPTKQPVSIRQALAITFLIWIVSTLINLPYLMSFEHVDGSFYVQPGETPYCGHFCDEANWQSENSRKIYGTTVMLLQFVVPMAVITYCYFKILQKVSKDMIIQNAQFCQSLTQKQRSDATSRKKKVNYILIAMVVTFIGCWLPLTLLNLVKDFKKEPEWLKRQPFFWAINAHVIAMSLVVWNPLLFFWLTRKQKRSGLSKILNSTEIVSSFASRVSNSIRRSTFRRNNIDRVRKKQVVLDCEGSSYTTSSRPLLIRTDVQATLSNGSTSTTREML
Method: as §1, §2

[6] = 0.1 nM peptide (so in the source)

In the case of “APKPKFIRF-NH2 [FLP-5-1, C. elegans FMRFamide-like peptide, C-terminally amidated, synthesized by SPPS]”, the “cAMP assay Gs, NPR-11” value (NPR-11 [1]; 0.1 µM peptide) is reported as 0.70 x-fold of basal, the “cAMP assay Gs, NPR-11” value (NPR-11 [1]; 10 µM peptide) is reported as 0.69 x-fold of basal and the “IP assay endog. Gαq + Gα16, NPR-11” value (NPR-11 [2]; [6]) is reported as 1.04 x-fold of basal. The “IP assay endog. Gαq + Gα16, NPR-11” value (NPR-11 [2]; 10 µM peptide) was 0.84 x-fold of basal, the “cAMP assay Gs, NPR-4b” value (NPR-4b [3]; 0.1 µM peptide) was 0.89 x-fold of basal and the “cAMP assay Gs, NPR-4b” value (NPR-4b [3]; 10 µM peptide) was 0.92 x-fold of basal. The “IP assay endog. Gαq + mock, NPR-11” value (NPR-11 [4]; [6]) was 1.05 x-fold of basal, the “IP assay endog. Gαq + mock, NPR-11” value (NPR-11 [4]; 10 µM peptide) was 1.09 x-fold of basal and the “IP assay endog. Gαq + Gα16, NPR-4b” value (NPR-4b [5]; [6]) was 1.04 x-fold of basal. The “IP assay endog. Gαq + Gα16, NPR-4b” value (NPR-4b [5]; 10 µM peptide) was 0.84 x-fold of basal, the “cAMP assay Gs, NPR-6” value (NPR-6; 0.1 µM peptide) was 0.68 x-fold of basal and the “cAMP assay Gs, NPR-6” value (NPR-6; 10 µM peptide) was 0.57 x-fold of basal. The “cAMP assay Gs, NPR-5b” value (NPR-5b; 0.1 µM peptide) was 0.68 x-fold of basal and the “cAMP assay Gs, NPR-5b” value (NPR-5b; 10 µM peptide) was 0.68 x-fold of basal.
